The values that follow come from patent publication US20080031868A1, “HUMAN LYSOZYME MEDICINE, ITS MANUFACTURING METHOD AND APPLICATION THEREOF” (priority 2005, published 2008).

In brackets after ≈: the same amount, converted by molar mass.

One data set deals with HELA cell. In words: Toxicity to HELA cell (CPE, Reed-Muench). The note with it: 6 days. Here is the method:
1. Determination of the Toxicity of Recombinant Human Lysozyme to HELA Cell:
HELA cells were seeded on 96-well culture plates at the concentration of 400,000/mi and grown at 37° C. in a 5% CO2 incubator for 2 hours. 100 μl recombinant human lysozyme which were double-diluted from 6000 ug/ml to 11.7 ug/ml and positive reference medicine which were double-diluted from 6000 ug/ml to 11.7 ug/ml were respectively added to 3 wells per concentration. At the same time the reference cells were cultivated at 37° C. in a 5% CO2 incubator for 6 days. Inverted microscope was used everyday to observe the cytopathic effect (CPE). The cytopathic effect under 25% was recorded as “+”, the cytopathic effect under 26%˜50% was recorded as “++”, the cytopathic effect under 51%˜75% was recorded as “+++” and the cytopathic effect under 76%˜100% was recorded as “++++”. Drug median toxic dose (TD50) and minimum toxic dose (TD0) were calculated by using Reed-Muench method.

Data set [1] deals with No. 04 Coronavirus. Briefly: Inhibition on No. 04 Coronavirus in HELA cells (CPE method). It counts as cell-based. Conditions: 2 h.
Description: HELA cells were seeded on 96-well cultivation plates at the concentration of 400,000/ml and grown to monolayer at 37° C. in 5% CO2 incubator for 24 hours. After removal of cultivation liquid, coronavirus liquid were added to HELA cells and absorbed at 37° C. in 5% CO2 incubator for 2 hours. […] At the same time reference cells and reference virous were cultivated at 37° C. in 5% CO2 incubator for 5 to 7 days. Inverted microscope was used everyday to observe the cytopathic effect (CPE) of virus. The determination were ended according to the appearance of “+++-++++”. […] The determination was repeated three times.
The subject of data set [2] is No. 04 Coronavirus. Briefly: organism not typed. Format: cell-based.
Description: HELA cells were seeded on 96-well cultivation plates at the concentration of 400,000/ml and grown to monolayer at 37° C. in 5% CO2 incubator for 24 hours. […] Then 100 TCID50coronavirus liquid were added to HELA cells. At the same time reference cell and reference virous were cultivated at 37° C. in 5% CO2 incubator for 5 to 7 days. At the same time normal cell reference and virous reference were cultivated at 37° C. in 5% CO2 incubator for 5 to 7 days. Inverted microscope was used everyday to observe the cytopathic effect (CPE) of virus. The determination were ended according to the appearance of “+++-++++”. […] The determination was repeated three times.
Setting [3] is: read-out: minimum inhibitory concentration (MIC).
Where [4] appears, read: HeLa, read-out: median inhibitory concentration (IC50).

`Nc1nc(O)c2ncn(COC(CO)CO)c2n1` [Ganciclovir, reference compound]: the “minimum toxic dose (TD0)” value in the data set on HELA cell (HELA cells, CPE, Reed-Muench) came out at 6000 ± 0 µg/mL. In addition, the “median toxic dose (TD50)” value in the data set with HELA cell (human) came to 6000 ± 0 µg/mL. In addition, the MIC with No. 04 Coronavirus [1] (setting [3]) and with No. 04 Coronavirus [2] (setting [3]) was 23.4 µg/mL (≈ 91.8 µM) each time. For the same compound, the IC50 in the data set with No. 04 Coronavirus [1] (setting [4]) and in the data set with No. 04 Coronavirus [2] (setting [4]) was 11.7 µg/mL (≈ 45.8 µM) in each case.
